These molecules were tested against T1, TRAP1 enzyme (Homo sapiens, UniProt Q12931) (assay: ADP Glo assay of TRAP1 ATPase activity). Conditions: TRAP1 ATPase activation, 150 nM Trap1, 20 μM ATP, geometric mean; read-out: ADP GLO DRC: GeoMean EC50.
T1 sequence (Q12931 60-704): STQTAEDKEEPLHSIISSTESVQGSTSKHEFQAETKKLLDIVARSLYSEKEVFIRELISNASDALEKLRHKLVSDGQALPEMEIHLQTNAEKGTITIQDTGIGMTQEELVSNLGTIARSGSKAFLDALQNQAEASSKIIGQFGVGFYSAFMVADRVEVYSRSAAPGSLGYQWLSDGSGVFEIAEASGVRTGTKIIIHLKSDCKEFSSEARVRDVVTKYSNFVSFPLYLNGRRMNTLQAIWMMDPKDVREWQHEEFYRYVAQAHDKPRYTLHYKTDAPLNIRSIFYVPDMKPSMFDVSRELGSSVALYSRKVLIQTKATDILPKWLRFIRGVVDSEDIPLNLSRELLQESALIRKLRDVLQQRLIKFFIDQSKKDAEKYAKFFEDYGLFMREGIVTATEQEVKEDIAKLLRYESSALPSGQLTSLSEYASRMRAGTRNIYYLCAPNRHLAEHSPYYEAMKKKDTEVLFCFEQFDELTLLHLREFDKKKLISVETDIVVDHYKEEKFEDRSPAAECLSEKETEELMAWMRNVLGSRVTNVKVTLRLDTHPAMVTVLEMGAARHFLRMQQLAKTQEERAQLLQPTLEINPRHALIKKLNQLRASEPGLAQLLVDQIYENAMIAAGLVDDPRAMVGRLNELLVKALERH
Assay type: biochemical
Description: Potency of test compounds to modulate the ATPase activity of TRAP1 enzyme was evaluated using ADP Glo assay. The assay is based on quantification of the ADP generated from ATP in the ATPase reaction. The assay is performed in two steps: first, after the ATPase reaction, an equal volume of ADP-Glo™ Reagent is added to terminate the ATPase reaction and deplete the remaining ATP. Second, the Kinase Detection Reagent is added to simultaneously convert ADP to ATP and allow the newly synthesized ATP to be measured using a luciferase/luciferin reaction.
All the assays were carried out in a 384-well Proxiplate. The buffer used was 25 mM Pipes pH-7.5, 40 mM KCl, 0.05 mM MgCl2, 0.025% BSA, 0.316 mM EGTA, 0.003% Empigen, 0.01% Igepal. 150 nM Trap1 enzyme was incubated with various concentrations of the test compound (0.79 μM-100 μM) at 37° C. for 30 mins (except in blank wells). 20 μM ATP was added to each well to start the reaction. The plate was spun for 1 min at 1200 rpm and then incubated at 37° C. for 60 mins. 5 μl of ADP Glo reagent was added to all the wells and spun the plate for 1 min at 1200 rpm and kept it on a shaker at ambient temperature for 60 mins. 10 μl of kinase detection mix was added to all the wells and the plate was read for Luminescence at 495 nm. The amount of ADP released was estimated from ATP/ADP standard curve generated at the same experimental conditions. Emax (Maximal percent activation) and EC50 (concentration for half maximal activation) were estimated by fitting the dose response data to a sigmoidal curve fitting equation using Graphpad Prism software V. 8.
In the case of `CCOc1c(F)c(F)cc(C(=O)Nc2ccc(OC)c(S(=O)(=O)Nc3c(C)cccc3C)c2)c1F` [Compound 1145], the EC50 is reported as < 10 µM. `COc1ccc(NC(=O)c2cnc(-c3ccccc3)s2)cc1S(=O)(=O)Nc1ccc(Cl)cc1` [Compound 468] was tested, and the EC50 was < 10 µM. Molecule `COc1ccc(NC(=O)c2ncccc2-c2ccccc2)cc1S(=O)(=O)Nc1c(C)cccc1C` [Compound 1098] has an EC50 of 10 to 20 µM. `COc1ccc(NC(=O)c2cccc3cnccc23)cc1S(=O)(=O)Nc1c(C)cccc1C` [Compound 1224] showed an EC50 of 20 to 100 µM. `COc1ccc(NC(=O)c2cc3cnccc3s2)cc1S(=O)(=O)Nc1c(C)cccc1C` [Compound 1287] showed an EC50 of 20 to 100 µM. In the case of `COc1ccc(NC(=O)c2cccc3nc(C)sc23)cc1S(=O)(=O)Nc1c(C)cccc1C` [Compound 1017], the EC50 is reported as < 10 µM. `COc1ccc(NC(=O)c2cnc(-c3c(OC)cccc3OC)[nH]2)cc1S(=O)(=O)Nc1ccc(Cl)cc1` [Compound 1969] showed an EC50 of 10 to 20 µM. With `COc1ccc(NC(=O)c2ccc(-c3ccccc3C(F)(F)F)o2)cc1S(=O)(=O)Nc1c(C)cccc1C` [Compound 1162] the EC50 was < 10 µM. `COc1ccc(NC(=O)c2ccnc(SC)n2)cc1S(=O)(=O)Nc1c(C)cccc1C` [Compound 1039] was tested, and the EC50 was 20 to 100 µM. Work on `CCc1cc(C(=O)Nc2ccc(F)c(S(=O)(=O)Nc3ccc(Cl)cc3)c2)cc(C)n1` [Compound 1286] yielded an EC50 of 20 to 100 µM. In the case of `CCCN1CCN(c2ccc(C(=O)Nc3ccc(OC)c(S(=O)(=O)Nc4c(C)cccc4C)c3)cc2)CC1` [Compound 1174], the EC50 is reported as < 10 µM. `COc1ccc(NC(=O)c2cc3cc(Br)cnc3s2)cc1S(=O)(=O)Nc1c(C)cccc1C` [Compound 1020] was tested, and the EC50 was 10 to 20 µM. For `COc1cc(C(=O)Nc2ccc(F)c(S(=O)(=O)Nc3ccc(Cl)cc3)c2)cc(Cl)c1OC` [Compound 775], the EC50 was 10 to 20 µM. In the case of `COc1ccc(NC(=O)c2ccc(-c3ccccn3)s2)cc1S(=O)(=O)Nc1c(C)cccc1C` [Compound 1152], the EC50 is reported as < 10 µM. With `COc1ccc(NC(=O)c2ncc(-c3ccccc3)o2)cc1S(=O)(=O)Nc1c(C)ccc2ncccc12` [Compound 1605] the EC50 was < 10 µM. Work on `COc1ccc(NC(=O)c2cc(C)nc3onc(C)c23)cc1S(=O)(=O)Nc1c(C)cccc1C` [Compound 1226] yielded an EC50 of 20 to 100 µM. Work on `Cc1nc(C(=O)Nc2ccc(F)c(S(=O)(=O)Nc3ccc(Cl)cc3)c2)c(C)s1` [Compound 716] yielded an EC50 of 20 to 100 µM. `COc1ccc(NC(=O)c2cc(C)n(C)c2)cc1S(=O)(=O)Nc1c(C)cccc1C` [Compound 1009] gave an EC50 of 20 to 100 µM. With `COc1ccc(NC(=O)c2ccc(-c3ccc(F)cc3)cc2F)cc1S(=O)(=O)Nc1c(C)cccc1C` [Compound 1142] the EC50 was < 10 µM. With `COc1ccc(NC(=O)c2cccc3nccnc23)cc1S(=O)(=O)Nc1c(C)cccc1C` [Compound 1251] the EC50 was 10 to 20 µM. `COc1ccc(NC(=O)c2ncc(-c3cc(F)c(F)c(F)c3)o2)cc1S(=O)(=O)Nc1c(C)csc1C` [Compound 2519] was tested, and the EC50 was 20 to 100 µM. With `COc1ccc(NC(=O)c2c(I)cnn2C)cc1S(=O)(=O)Nc1c(C)cccc1C` [Compound 1088] the EC50 was 20 to 100 µM. `COc1ccc(NC(=O)c2cccc3ccoc23)cc1S(=O)(=O)Nc1c(C)cccc1C` [Compound 1094] was tested, and the EC50 was < 10 µM. In the case of `COc1ccc(NC(=O)c2csc(-c3cc(F)c(F)c(F)c3)n2)cc1S(=O)(=O)Nc1c(C)csc1C` [Compound 2406], the EC50 is reported as < 10 µM. With `COc1ccc(NC(=O)c2cc3c(C)nn(C)c3s2)cc1S(=O)(=O)Nc1c(Cl)cccc1Cl` [Compound 1375] the EC50 was 10 to 20 µM.

Same assay, conditions: read-out: ADP GLO DRC: Mean Emax
In the case of `CCOc1c(F)c(F)cc(C(=O)Nc2ccc(OC)c(S(=O)(=O)Nc3c(C)cccc3C)c2)c1F` [Compound 1145], the Emax is reported as 123 to 159%. `COc1ccc(NC(=O)c2cnc(-c3ccccc3)s2)cc1S(=O)(=O)Nc1ccc(Cl)cc1` [Compound 468] showed an Emax of 160 to 199%. Molecule `COc1ccc(NC(=O)c2ncccc2-c2ccccc2)cc1S(=O)(=O)Nc1c(C)cccc1C` [Compound 1098] has an Emax of 200 to 300%. For `COc1ccc(NC(=O)c2cccc3cnccc23)cc1S(=O)(=O)Nc1c(C)cccc1C` [Compound 1224], the Emax was 160 to 199%. `COc1ccc(NC(=O)c2cc3cnccc3s2)cc1S(=O)(=O)Nc1c(C)cccc1C` [Compound 1287] showed an Emax of 123 to 159%. In the case of `COc1ccc(NC(=O)c2cccc3nc(C)sc23)cc1S(=O)(=O)Nc1c(C)cccc1C` [Compound 1017], the Emax is reported as 200 to 300%. `COc1ccc(NC(=O)c2cnc(-c3c(OC)cccc3OC)[nH]2)cc1S(=O)(=O)Nc1ccc(Cl)cc1` [Compound 1969] showed an Emax of 200 to 300%. For `COc1ccc(NC(=O)c2ccc(-c3ccccc3C(F)(F)F)o2)cc1S(=O)(=O)Nc1c(C)cccc1C` [Compound 1162], the Emax was 123 to 159%. `COc1ccc(NC(=O)c2ccnc(SC)n2)cc1S(=O)(=O)Nc1c(C)cccc1C` [Compound 1039] gave an Emax of 160 to 199%. `CCc1cc(C(=O)Nc2ccc(F)c(S(=O)(=O)Nc3ccc(Cl)cc3)c2)cc(C)n1` [Compound 1286] was tested, and the Emax was 123 to 159%. For `CCCN1CCN(c2ccc(C(=O)Nc3ccc(OC)c(S(=O)(=O)Nc4c(C)cccc4C)c3)cc2)CC1` [Compound 1174], the Emax was 160 to 199%. `COc1ccc(NC(=O)c2cc3cc(Br)cnc3s2)cc1S(=O)(=O)Nc1c(C)cccc1C` [Compound 1020] showed an Emax of 200 to 300%. With `COc1cc(C(=O)Nc2ccc(F)c(S(=O)(=O)Nc3ccc(Cl)cc3)c2)cc(Cl)c1OC` [Compound 775] the Emax was 123 to 159%. Molecule `COc1ccc(NC(=O)c2ccc(-c3ccccn3)s2)cc1S(=O)(=O)Nc1c(C)cccc1C` [Compound 1152] has an Emax of 160 to 199%. `COc1ccc(NC(=O)c2ncc(-c3ccccc3)o2)cc1S(=O)(=O)Nc1c(C)ccc2ncccc12` [Compound 1605] gave an Emax of 160 to 199%. Molecule `COc1ccc(NC(=O)c2cc(C)nc3onc(C)c23)cc1S(=O)(=O)Nc1c(C)cccc1C` [Compound 1226] has an Emax of 123 to 159%. Molecule `Cc1nc(C(=O)Nc2ccc(F)c(S(=O)(=O)Nc3ccc(Cl)cc3)c2)c(C)s1` [Compound 716] has an Emax of 123 to 159%. In the case of `COc1ccc(NC(=O)c2cc(C)n(C)c2)cc1S(=O)(=O)Nc1c(C)cccc1C` [Compound 1009], the Emax is reported as 160 to 199%. For `COc1ccc(NC(=O)c2ccc(-c3ccc(F)cc3)cc2F)cc1S(=O)(=O)Nc1c(C)cccc1C` [Compound 1142], the Emax was 123 to 159%. Work on `COc1ccc(NC(=O)c2cccc3nccnc23)cc1S(=O)(=O)Nc1c(C)cccc1C` [Compound 1251] yielded an Emax of 160 to 199%. `COc1ccc(NC(=O)c2ncc(-c3cc(F)c(F)c(F)c3)o2)cc1S(=O)(=O)Nc1c(C)csc1C` [Compound 2519] gave an Emax of 123 to 159%. `COc1ccc(NC(=O)c2c(I)cnn2C)cc1S(=O)(=O)Nc1c(C)cccc1C` [Compound 1088] was tested, and the Emax was 160 to 199%. `COc1ccc(NC(=O)c2cccc3ccoc23)cc1S(=O)(=O)Nc1c(C)cccc1C` [Compound 1094] showed an Emax of 200 to 300%. Work on `COc1ccc(NC(=O)c2csc(-c3cc(F)c(F)c(F)c3)n2)cc1S(=O)(=O)Nc1c(C)csc1C` [Compound 2406] yielded an Emax of 123 to 159%. For `COc1ccc(NC(=O)c2cc3c(C)nn(C)c3s2)cc1S(=O)(=O)Nc1c(Cl)cccc1Cl` [Compound 1375], the Emax was 160 to 199%.
